How the values were obtained:
LRRK2 = target: T1, LRRK2 (Homo sapiens, UniProt Q5S007); assay: Proqinase Kinase profiling; assay type: biochemical; conditions: read-out: % inhibition at 100nM
T1 construct: purchased DiscoverX

AKT3 = target: T2, AKT3 (Homo sapiens, UniProt Q9Y243); assay: Proqinase Kinase profiling; assay type: biochemical; conditions: read-out: % inhibition at 100nM
T2 construct: purchased DiscoverX

SRMS = target: T3, SRMS (Homo sapiens, UniProt Q9H3Y6); assay: Proqinase Kinase profiling; assay type: biochemical; conditions: read-out: % inhibition at 100nM
T3 construct: purchased DiscoverX

WT ALK2 receptor = target: T4, WT ALK2 receptor (Homo sapiens, UniProt Q04771); assay: BRE-LUC reporter assay in C2C12 cells cotransfected with WT ALK2; assay type: cell-based; conditions: BMP-6 50 ng/mL 16 hours, 30-min preincubation, read-out: ALK2wt BMP-6 IC50
T4 construct: expressed in transfected cells; host or cells: C2C12 murine myofibroblast cells
Procedure: For luciferase reporter assays, cells were seeded in 24-well plates and transfected with DharmaFECT Duo (Fisher Scientific, Landsmeer, The Netherlands), following the recommendations of the manufacturer. 48 hours after transfection the cells were harvested and lysed. […] Each transfection mixture was equalized with empty vector when necessary and every experiment was performed in triplicate.

MAP3K8 = target: T5, MAP3K8 (Homo sapiens, UniProt P41279); assay: Proqinase Kinase profiling; assay type: biochemical; conditions: read-out: % inhibition at 100nM
T5 construct: purchased DiscoverX

PAK6 = target: T6, PAK6 (Homo sapiens, UniProt Q9NQU5); assay: Proqinase Kinase profiling; assay type: biochemical; conditions: read-out: % inhibition at 100nM
T6 construct: purchased DiscoverX

FLT3 = target: T7, FLT3 (Homo sapiens, UniProt P36888); assay: Proqinase Kinase profiling; assay type: biochemical; conditions: read-out: % inhibition at 100nM
T7 construct: purchased DiscoverX

FES = target: T8, FES (Homo sapiens, UniProt P07332); assay: Proqinase Kinase profiling; assay type: biochemical; conditions: read-out: % inhibition at 100nM
T8 construct: purchased DiscoverX

TYRO3 = target: T9, TYRO3 (Homo sapiens, UniProt Q06418); assay: Proqinase Kinase profiling; assay type: biochemical; conditions: read-out: % inhibition at 100nM
T9 construct: purchased DiscoverX

DYRK3 = target: T10, DYRK3 (Homo sapiens, UniProt O43781); assay: Proqinase Kinase profiling; assay type: biochemical; conditions: read-out: % inhibition at 100nM
T10 construct: purchased DiscoverX

EPHB1 = target: T11, EPHB1 (Homo sapiens, UniProt P54762); assay: Proqinase Kinase profiling; assay type: biochemical; conditions: read-out: % inhibition at 100nM
T11 construct: purchased DiscoverX

MAP3K9 = target: T12, MAP3K9 (Homo sapiens, UniProt P80192); assay: Proqinase Kinase profiling; assay type: biochemical; conditions: read-out: % inhibition at 100nM
T12 construct: purchased DiscoverX

BLK = target: T13, BLK (Homo sapiens, UniProt P51451); assay: Proqinase Kinase profiling; assay type: biochemical; conditions: read-out: % inhibition at 100nM
T13 construct: purchased DiscoverX

TEK = target: T14, TEK (Homo sapiens, UniProt Q02763); assay: Proqinase Kinase profiling; assay type: biochemical; conditions: read-out: % inhibition at 100nM
T14 construct: purchased DiscoverX

ROCK2 = target: T15, ROCK2 (Homo sapiens, UniProt O75116); assay: Proqinase Kinase profiling; assay type: biochemical; conditions: read-out: % inhibition at 100nM
T15 construct: purchased DiscoverX

FRK = target: T16, FRK (Homo sapiens, UniProt P42685); assay: Proqinase Kinase profiling; assay type: biochemical; conditions: read-out: % inhibition at 100nM
T16 construct: purchased DiscoverX

CSNK1D = target: T17, CSNK1D (Homo sapiens, UniProt P48730); assay: Proqinase Kinase profiling; assay type: biochemical; conditions: read-out: % inhibition at 100nM
T17 construct: purchased DiscoverX

LCK = target: T18, LCK (Homo sapiens, UniProt P06239); assay: Proqinase Kinase profiling; assay type: biochemical; conditions: read-out: % inhibition at 100nM
T18 construct: purchased DiscoverX

MAPKAPK3 = target: T19, MAPKAPK3 (Homo sapiens, UniProt Q16644); assay: Proqinase Kinase profiling; assay type: biochemical; conditions: read-out: % inhibition at 100nM
T19 construct: purchased DiscoverX

LRRK2_I2020T = target: T20, LRRK2_I2020T (Homo sapiens, UniProt Q5S007, I2020T); assay: Proqinase Kinase profiling; assay type: biochemical; conditions: read-out: % inhibition at 100nM
T20 construct: purchased DiscoverX

ZAP70 = target: T21, ZAP70 (Homo sapiens, UniProt P43403); assay: Proqinase Kinase profiling; assay type: biochemical; conditions: read-out: % inhibition at 100nM
T21 construct: purchased DiscoverX

MATK = target: T22, MATK (Homo sapiens, UniProt P42679); assay: Proqinase Kinase profiling; assay type: biochemical; conditions: read-out: % inhibition at 100nM
T22 construct: purchased DiscoverX

PRKD1 = target: T23, PRKD1 (Homo sapiens, UniProt Q15139); assay: Proqinase Kinase profiling; assay type: biochemical; conditions: read-out: % inhibition at 100nM
T23 construct: purchased DiscoverX

EPHA4 = target: T24, EPHA4 (Homo sapiens, UniProt P54764); assay: Proqinase Kinase profiling; assay type: biochemical; conditions: read-out: % inhibition at 100nM
T24 construct: purchased DiscoverX

RET_G691S = target: T25, RET_G691S (Homo sapiens, UniProt P07949, G691S); assay: Proqinase Kinase profiling; assay type: biochemical; conditions: read-out: % inhibition at 100nM
T25 construct: purchased DiscoverX

CAMK1D = target: T26, CAMK1D (Homo sapiens, UniProt Q8IU85); assay: Proqinase Kinase profiling; assay type: biochemical; conditions: read-out: % inhibition at 100nM
T26 construct: purchased DiscoverX

EGFR_S752-I759del = target: T27, EGFR_S752-I759del (Homo sapiens, UniProt P00533, DEL752-759); assay: Proqinase Kinase profiling; assay type: biochemical; conditions: read-out: % inhibition at 100nM
T27 construct: purchased DiscoverX

AXL = target: T28, AXL (Homo sapiens, UniProt P30530); assay: Proqinase Kinase profiling; assay type: biochemical; conditions: read-out: % inhibition at 100nM
T28 construct: purchased DiscoverX

KIT_A829P = target: T29, KIT_A829P (Homo sapiens, UniProt P10721, A829P); assay: Proqinase Kinase profiling; assay type: biochemical; conditions: read-out: % inhibition at 100nM
T29 construct: purchased DiscoverX

MAP2K6 = target: T30, MAP2K6 (Homo sapiens, UniProt P52564); assay: Proqinase Kinase profiling; assay type: biochemical; conditions: read-out: % inhibition at 100nM
T30 construct: purchased DiscoverX

STK33 = target: T31, STK33 (Homo sapiens, UniProt Q9BYT3); assay: Proqinase Kinase profiling; assay type: biochemical; conditions: read-out: % inhibition at 100nM
T31 construct: purchased DiscoverX

NEK7 = target: T32, NEK7 (Homo sapiens, UniProt Q8TDX7); assay: Proqinase Kinase profiling; assay type: biochemical; conditions: read-out: % inhibition at 100nM
T32 construct: purchased DiscoverX

SRPK1 = target: T33, SRPK1 (Homo sapiens, UniProt Q96SB4); assay: Proqinase Kinase profiling; assay type: biochemical; conditions: read-out: % inhibition at 100nM
T33 construct: purchased DiscoverX

DNAPK = target: T34, DNAPK (Homo sapiens, UniProt P78527); assay: Proqinase Kinase profiling; assay type: biochemical; conditions: read-out: % inhibition at 100nM
T34 construct: purchased DiscoverX

ABL2 = target: T35, ABL2 (Homo sapiens, UniProt P42684); assay: Proqinase Kinase profiling; assay type: biochemical; conditions: read-out: % inhibition at 100nM
T35 construct: purchased DiscoverX

MAPK8 = target: T36, MAPK8 (Homo sapiens, UniProt P45983); assay: Proqinase Kinase profiling; assay type: biochemical; conditions: read-out: % inhibition at 100nM
T36 construct: purchased DiscoverX

RET_V804M = target: T37, RET_V804M (Homo sapiens, UniProt P07949, V804M); assay: Proqinase Kinase profiling; assay type: biochemical; conditions: read-out: % inhibition at 100nM
T37 construct: purchased DiscoverX

TTK = target: T38, TTK (Homo sapiens, UniProt P33981); assay: Proqinase Kinase profiling; assay type: biochemical; conditions: read-out: % inhibition at 100nM
T38 construct: purchased DiscoverX

TYK2 = target: T39, TYK2 (Homo sapiens, UniProt P29597); assay: Proqinase Kinase profiling; assay type: biochemical; conditions: read-out: % inhibition at 100nM
T39 construct: purchased DiscoverX

ABL1_Q252H = target: T40, ABL1_Q252H (Homo sapiens, UniProt P00519, Q252H); assay: Proqinase Kinase profiling; assay type: biochemical; conditions: read-out: % inhibition at 100nM
T40 construct: purchased DiscoverX

T37 sequence (P07949 29-1114 V804M): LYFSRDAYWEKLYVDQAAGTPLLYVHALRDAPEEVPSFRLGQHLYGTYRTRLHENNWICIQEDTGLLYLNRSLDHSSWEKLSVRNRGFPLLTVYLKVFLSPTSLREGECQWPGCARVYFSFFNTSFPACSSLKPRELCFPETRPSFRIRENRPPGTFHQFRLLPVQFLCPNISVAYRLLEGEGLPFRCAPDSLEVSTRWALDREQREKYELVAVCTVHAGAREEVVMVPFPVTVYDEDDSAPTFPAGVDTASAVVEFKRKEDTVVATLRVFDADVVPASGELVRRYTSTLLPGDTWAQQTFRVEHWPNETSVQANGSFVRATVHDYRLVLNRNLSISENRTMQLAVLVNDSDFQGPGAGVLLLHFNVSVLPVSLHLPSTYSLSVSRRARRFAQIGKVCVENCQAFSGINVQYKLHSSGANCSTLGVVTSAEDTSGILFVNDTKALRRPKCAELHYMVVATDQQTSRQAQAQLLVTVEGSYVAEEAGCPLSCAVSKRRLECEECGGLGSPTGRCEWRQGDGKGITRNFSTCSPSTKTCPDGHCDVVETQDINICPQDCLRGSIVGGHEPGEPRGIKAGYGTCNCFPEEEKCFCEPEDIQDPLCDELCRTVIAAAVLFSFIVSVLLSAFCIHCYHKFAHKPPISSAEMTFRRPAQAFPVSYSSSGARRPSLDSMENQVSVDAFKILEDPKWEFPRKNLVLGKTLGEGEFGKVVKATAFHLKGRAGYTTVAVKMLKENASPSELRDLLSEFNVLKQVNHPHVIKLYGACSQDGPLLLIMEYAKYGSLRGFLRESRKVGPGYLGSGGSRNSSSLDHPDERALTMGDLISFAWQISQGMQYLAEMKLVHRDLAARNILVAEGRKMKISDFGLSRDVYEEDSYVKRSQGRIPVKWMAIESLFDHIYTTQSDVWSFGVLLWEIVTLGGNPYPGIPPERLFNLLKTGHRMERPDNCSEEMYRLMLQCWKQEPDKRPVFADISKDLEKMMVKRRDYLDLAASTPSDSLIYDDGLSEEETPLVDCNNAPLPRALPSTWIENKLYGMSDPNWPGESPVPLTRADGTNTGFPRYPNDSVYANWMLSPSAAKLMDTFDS
T19 sequence (Q16644 whole entry): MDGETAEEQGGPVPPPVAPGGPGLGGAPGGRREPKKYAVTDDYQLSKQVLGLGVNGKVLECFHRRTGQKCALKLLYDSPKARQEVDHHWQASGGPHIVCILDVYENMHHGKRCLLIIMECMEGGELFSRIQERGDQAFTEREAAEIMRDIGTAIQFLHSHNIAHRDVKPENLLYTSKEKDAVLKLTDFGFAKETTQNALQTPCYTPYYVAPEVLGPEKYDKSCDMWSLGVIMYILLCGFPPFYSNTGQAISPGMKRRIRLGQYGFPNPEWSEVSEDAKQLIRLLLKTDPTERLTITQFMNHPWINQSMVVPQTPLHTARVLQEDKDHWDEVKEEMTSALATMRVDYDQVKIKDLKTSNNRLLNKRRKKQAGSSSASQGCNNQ
T4 sequence (Q04771 21-509): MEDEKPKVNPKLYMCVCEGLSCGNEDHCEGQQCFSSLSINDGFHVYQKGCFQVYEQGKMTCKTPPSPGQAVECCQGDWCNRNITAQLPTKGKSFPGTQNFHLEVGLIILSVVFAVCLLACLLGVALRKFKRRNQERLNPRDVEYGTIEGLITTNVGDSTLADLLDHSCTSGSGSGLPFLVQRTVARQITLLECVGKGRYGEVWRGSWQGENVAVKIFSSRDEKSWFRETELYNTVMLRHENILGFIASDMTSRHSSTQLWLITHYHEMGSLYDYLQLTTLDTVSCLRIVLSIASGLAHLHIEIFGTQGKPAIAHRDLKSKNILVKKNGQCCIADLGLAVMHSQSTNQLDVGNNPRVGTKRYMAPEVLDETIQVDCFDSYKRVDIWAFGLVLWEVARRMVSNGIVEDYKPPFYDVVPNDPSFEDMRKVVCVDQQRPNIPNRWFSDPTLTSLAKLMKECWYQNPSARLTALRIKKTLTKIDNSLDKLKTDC
T25 sequence (P07949 29-1114 G691S): as the sequence (P07949 29-1114 V804M) above, with G663S, M776V counted along it
T31 sequence (Q9BYT3 whole entry): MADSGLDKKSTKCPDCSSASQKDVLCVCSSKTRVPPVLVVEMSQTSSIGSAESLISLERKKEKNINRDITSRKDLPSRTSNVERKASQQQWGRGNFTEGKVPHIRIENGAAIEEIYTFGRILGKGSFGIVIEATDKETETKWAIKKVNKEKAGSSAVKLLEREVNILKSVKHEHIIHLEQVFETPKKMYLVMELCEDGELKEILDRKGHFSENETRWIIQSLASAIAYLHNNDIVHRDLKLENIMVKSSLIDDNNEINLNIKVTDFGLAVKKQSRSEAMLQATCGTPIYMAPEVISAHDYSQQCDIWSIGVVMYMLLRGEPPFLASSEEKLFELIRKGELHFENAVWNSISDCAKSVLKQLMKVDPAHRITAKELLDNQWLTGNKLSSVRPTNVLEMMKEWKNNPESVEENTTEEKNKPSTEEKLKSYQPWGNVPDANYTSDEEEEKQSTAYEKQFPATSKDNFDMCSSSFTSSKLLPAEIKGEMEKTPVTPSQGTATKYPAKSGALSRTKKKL
T18 sequence (P06239 whole entry): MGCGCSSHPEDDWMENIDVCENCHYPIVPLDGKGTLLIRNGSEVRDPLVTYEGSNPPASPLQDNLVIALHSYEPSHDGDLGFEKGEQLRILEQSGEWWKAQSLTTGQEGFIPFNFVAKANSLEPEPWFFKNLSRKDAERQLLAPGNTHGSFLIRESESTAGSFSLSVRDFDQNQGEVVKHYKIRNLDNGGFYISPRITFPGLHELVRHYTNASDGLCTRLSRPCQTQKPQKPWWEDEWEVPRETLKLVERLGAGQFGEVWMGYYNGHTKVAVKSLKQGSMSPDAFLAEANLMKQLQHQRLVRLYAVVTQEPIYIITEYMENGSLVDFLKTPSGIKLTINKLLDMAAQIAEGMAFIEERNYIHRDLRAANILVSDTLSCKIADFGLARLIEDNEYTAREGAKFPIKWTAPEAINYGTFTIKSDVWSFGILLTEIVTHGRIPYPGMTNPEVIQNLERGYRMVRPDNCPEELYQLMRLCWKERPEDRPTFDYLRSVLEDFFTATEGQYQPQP
T23 sequence (Q15139 whole entry): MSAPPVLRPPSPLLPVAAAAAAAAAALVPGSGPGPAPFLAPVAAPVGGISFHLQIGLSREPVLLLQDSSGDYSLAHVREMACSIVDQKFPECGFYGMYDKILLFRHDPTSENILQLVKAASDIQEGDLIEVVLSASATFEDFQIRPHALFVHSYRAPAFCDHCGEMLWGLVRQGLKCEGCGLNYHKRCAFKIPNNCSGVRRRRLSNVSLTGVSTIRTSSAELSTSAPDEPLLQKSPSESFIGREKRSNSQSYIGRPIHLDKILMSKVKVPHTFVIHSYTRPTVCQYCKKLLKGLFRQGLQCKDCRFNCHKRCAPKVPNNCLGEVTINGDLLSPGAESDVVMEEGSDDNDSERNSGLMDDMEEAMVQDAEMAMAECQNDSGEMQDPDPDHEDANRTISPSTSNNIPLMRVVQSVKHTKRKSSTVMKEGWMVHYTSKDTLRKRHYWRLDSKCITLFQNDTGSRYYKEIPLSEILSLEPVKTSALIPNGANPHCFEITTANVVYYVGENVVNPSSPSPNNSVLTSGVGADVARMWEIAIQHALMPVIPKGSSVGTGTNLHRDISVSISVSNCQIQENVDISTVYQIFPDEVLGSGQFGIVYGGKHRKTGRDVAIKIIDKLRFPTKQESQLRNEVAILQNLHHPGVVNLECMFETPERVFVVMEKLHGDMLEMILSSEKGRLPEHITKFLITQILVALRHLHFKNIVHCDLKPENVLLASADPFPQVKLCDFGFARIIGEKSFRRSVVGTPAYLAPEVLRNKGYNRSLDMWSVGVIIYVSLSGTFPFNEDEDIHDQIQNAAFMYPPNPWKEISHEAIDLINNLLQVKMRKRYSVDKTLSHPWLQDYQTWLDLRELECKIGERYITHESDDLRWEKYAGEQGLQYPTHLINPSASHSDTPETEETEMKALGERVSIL
T17 sequence (P48730 whole entry): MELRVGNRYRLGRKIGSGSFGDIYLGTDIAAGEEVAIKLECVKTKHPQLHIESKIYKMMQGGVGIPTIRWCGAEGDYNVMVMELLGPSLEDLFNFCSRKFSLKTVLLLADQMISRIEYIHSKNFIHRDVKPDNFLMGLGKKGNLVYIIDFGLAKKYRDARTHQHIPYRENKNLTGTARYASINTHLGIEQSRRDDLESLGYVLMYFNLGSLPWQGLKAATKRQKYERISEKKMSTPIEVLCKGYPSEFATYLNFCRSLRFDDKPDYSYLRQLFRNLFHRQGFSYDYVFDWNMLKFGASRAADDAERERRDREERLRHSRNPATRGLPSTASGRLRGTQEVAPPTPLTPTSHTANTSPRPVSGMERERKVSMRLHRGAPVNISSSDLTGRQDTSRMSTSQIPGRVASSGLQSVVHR
T3 sequence (Q9H3Y6 whole entry): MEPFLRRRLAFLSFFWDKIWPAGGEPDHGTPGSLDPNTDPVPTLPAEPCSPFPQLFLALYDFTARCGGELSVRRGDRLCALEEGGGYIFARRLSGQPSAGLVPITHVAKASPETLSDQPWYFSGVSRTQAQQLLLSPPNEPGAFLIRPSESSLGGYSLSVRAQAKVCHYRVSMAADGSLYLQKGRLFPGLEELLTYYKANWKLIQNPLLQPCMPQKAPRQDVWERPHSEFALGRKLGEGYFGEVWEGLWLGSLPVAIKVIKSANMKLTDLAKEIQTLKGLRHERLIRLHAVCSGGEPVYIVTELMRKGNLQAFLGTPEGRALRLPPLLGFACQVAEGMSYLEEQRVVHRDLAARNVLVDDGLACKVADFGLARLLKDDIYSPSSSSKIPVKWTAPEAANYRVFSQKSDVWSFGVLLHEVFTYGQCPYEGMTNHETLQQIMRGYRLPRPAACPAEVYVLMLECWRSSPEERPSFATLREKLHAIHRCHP

| Compound | inhibition at 0.1 µM (LRRK2) [%] | inhibition at 0.1 µM (AKT3) [%] | inhibition at 0.1 µM (SRMS) [%] | IC50 (WT ALK2 receptor) [nM] | inhibition at 0.1 µM (MAP3K8) [%] | inhibition at 0.1 µM (PAK6) [%] | inhibition at 0.1 µM (FLT3) [%] | inhibition at 0.1 µM (FES) [%] | inhibition at 0.1 µM (TYRO3) [%] | inhibition at 0.1 µM (DYRK3) [%] | inhibition at 0.1 µM (EPHB1) [%] | inhibition at 0.1 µM (MAP3K9) [%] | inhibition at 0.1 µM (BLK) [%] | inhibition at 0.1 µM (TEK) [%] | inhibition at 0.1 µM (ROCK2) [%] | inhibition at 0.1 µM (FRK) [%] | inhibition at 0.1 µM (CSNK1D) [%] | inhibition at 0.1 µM (LCK) [%] | inhibition at 0.1 µM (MAPKAPK3) [%] | inhibition at 0.1 µM (LRRK2_I2020T) [%] | other results |
| --- | --- | --- | --- | --- | --- | --- | --- | --- | --- | --- | --- | --- | --- | --- | --- | --- | --- | --- | --- | --- | --- |
| Clc1cc2cc(c1)-c1cnn3ccc(nc13)NCCOCCO2 [OD36] | 53 | -1 | 11 | 308 | 5 | 1 | 6 | 9 | 5 | 0 | -2 | 13 | 35 | 6 | 7 | 35 | 10 | 48 | -1 | 49 | inhibition at 0.1 µM (ZAP70): -3%; inhibition at 0.1 µM (MATK): 9%; inhibition at 0.1 µM (PRKD1): -11%; inhibition at 0.1 µM (EPHA4): -2%; inhibition at 0.1 µM (RET_G691S): 25%; inhibition at 0.1 µM (CAMK1D): 6%; inhibition at 0.1 µM (EGFR_S752-I759del): 17%; inhibition at 0.1 µM (AXL): 10%; inhibition at 0.1 µM (KIT_A829P): 17%; inhibition at 0.1 µM (MAP2K6): 1%; inhibition at 0.1 µM (STK33): -1%; inhibition at 0.1 µM (NEK7): 5%; inhibition at 0.1 µM (SRPK1): 10%; inhibition at 0.1 µM (DNAPK): 13%; inhibition at 0.1 µM (ABL2): 3%; inhibition at 0.1 µM (MAPK8): -6%; inhibition at 0.1 µM (RET_V804M): 5%; inhibition at 0.1 µM (TTK): 10%; inhibition at 0.1 µM (TYK2): 14%; inhibition at 0.1 µM (ABL1_Q252H): 33% |
| Cc1cc2cc(c1)-c1cnn3ccc(nc13)NCCNC(=O)CCN(C)C2 [OD52] | 10 | 2 | -9 | 1570 | -10 | 4 | -18 | -26 | -7 | -5 | -26 | 4 | -6 | -7 | -9 | -5 | 5 | 4 | -25 | 22 | inhibition at 0.1 µM (ZAP70): -13%; inhibition at 0.1 µM (MATK): -9%; inhibition at 0.1 µM (PRKD1): -22%; inhibition at 0.1 µM (EPHA4): -7%; inhibition at 0.1 µM (RET_G691S): 24%; inhibition at 0.1 µM (CAMK1D): -4%; inhibition at 0.1 µM (EGFR_S752-I759del): -15%; inhibition at 0.1 µM (AXL): 10%; inhibition at 0.1 µM (KIT_A829P): -10%; inhibition at 0.1 µM (MAP2K6): 6%; inhibition at 0.1 µM (STK33): -13%; inhibition at 0.1 µM (NEK7): 5%; inhibition at 0.1 µM (SRPK1): -9%; inhibition at 0.1 µM (DNAPK): 4%; inhibition at 0.1 µM (ABL2): -23%; inhibition at 0.1 µM (MAPK8): -9%; inhibition at 0.1 µM (RET_V804M): -6%; inhibition at 0.1 µM (TTK): -9%; inhibition at 0.1 µM (TYK2): -3%; inhibition at 0.1 µM (ABL1_Q252H): 1% |

Source: PMC6874179, “Development of Macrocycle Kinase Inhibitors for ALK2 Using Fibrodysplasia Ossificans Progressiva‐Derived Endothelial Cells” (JBMR Plus, 2019)
